The values that follow come from PMC12439166, “Dietary flavonoids form supramolecular assemblies, alter biochemistry, and enhance cell resilience” (Frontiers in Nutrition, 2025).

Each structure is given as a SMILES string.

The assay has as its target T1, Histone-Lysine N-methyltransferase (NSD2) (Homo sapiens, UniProt O96028).
T1 sequence (O96028 1-1365): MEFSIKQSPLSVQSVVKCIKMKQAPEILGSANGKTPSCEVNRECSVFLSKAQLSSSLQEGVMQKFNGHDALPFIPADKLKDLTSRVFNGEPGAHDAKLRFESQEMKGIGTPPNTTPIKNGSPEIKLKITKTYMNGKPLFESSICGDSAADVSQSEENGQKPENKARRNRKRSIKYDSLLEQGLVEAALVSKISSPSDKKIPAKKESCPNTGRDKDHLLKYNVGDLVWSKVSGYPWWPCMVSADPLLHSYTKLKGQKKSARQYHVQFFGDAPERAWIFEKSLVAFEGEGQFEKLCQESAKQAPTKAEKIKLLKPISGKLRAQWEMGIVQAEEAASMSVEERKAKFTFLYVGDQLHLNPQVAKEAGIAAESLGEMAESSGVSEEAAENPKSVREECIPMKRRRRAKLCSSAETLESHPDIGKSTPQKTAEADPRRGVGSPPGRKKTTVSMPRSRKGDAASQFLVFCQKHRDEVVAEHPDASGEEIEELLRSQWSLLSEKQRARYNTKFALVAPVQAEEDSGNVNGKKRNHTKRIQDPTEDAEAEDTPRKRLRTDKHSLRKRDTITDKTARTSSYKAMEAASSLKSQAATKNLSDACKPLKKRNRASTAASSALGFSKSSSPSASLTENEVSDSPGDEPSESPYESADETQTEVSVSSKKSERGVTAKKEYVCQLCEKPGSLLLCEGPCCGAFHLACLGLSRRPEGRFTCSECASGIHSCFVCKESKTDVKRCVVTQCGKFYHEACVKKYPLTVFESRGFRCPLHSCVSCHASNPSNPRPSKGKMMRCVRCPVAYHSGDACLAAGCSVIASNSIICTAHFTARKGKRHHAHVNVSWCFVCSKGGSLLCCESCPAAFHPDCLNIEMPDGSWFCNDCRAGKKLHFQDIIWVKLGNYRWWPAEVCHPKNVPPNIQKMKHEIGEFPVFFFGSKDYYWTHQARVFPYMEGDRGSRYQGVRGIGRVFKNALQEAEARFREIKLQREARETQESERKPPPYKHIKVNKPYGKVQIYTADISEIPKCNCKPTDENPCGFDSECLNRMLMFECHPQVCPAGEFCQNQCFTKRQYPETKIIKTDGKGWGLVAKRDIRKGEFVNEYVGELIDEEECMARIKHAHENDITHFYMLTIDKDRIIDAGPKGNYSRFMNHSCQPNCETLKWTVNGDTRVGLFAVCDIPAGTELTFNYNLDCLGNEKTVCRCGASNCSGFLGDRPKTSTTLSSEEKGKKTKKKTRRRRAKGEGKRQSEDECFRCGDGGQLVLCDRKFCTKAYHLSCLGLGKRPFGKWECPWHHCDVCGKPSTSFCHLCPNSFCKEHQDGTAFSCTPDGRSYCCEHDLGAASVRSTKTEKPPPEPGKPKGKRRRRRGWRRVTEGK
Put plainly: Enzyme activity assay (SAMDI-MS), NSD2. It counts as biochemical. The conditions noted are these: 10 concentrations, 5 nM to 100 μM, compounds incubated with enzyme 30 min, result in words. As for the experimental part:
Enzyme screens were performed by SAMDI Tech (contract research organization); enzyme assays were performed in a 20 μL volume in 384-well low-volume polypropylene microtiter plates (Greiner Bio-One) at room temperature. The enzymes [Arginase 1 (ARG1), Lysine demethylase 4C (KDM4C), MAP/microtubule affinity-regulating kinase 4 (MARK4), Histone-Lysine N-methyltransferase (NSD2), Tyrosine-protein phosphatase non-receptor type 1 (PTP1B), and Sirtuin-3 (SIRT3)] were incubated with compounds for 30 min prior to initiation of the reaction by the addition of substrate and cofactors (if required). Reactions were quenched by the addition of 0.5% formic acid (final) with subsequent neutralization using 1% sodium bicarbonate (final). For SAMDI MS analysis, 2 μL of each reaction was transferred using a 384-channel automated liquid handler to SAMDI biochip arrays functionalized with a neutravidin-presenting self-assembled monolayer. The preparation of SAMDI biochip arrays has been previously described ([41], [42], [49]). The SAMDI arrays were incubated for 1 h in a humidified chamber to allow specific immobilization of the biotinylated substrates and products; they were then purified by washing with ultrafiltered water (50 μL/spot) and dried with compressed air. A matrix comprising α-Cyano-4-hydroxycinnamic acid in 80% acetonitrile: 20% aqueous ammonium citrate (10 mg/mL final) was applied in an automated format by dispensing 50 nL to each spot in the array. SAMDI MS was performed using reflector positive mode on an AB Sciex TOF-TOF 5800 System (AB Sciex, Framingham, MA) with 400 shots/spot analyzed in a random raster sampling. For data analysis, the area under the curves (AUCs) for the product peak and substrate peak were calculated using the TOF/TOF Series Explorer (AB Sciex), and the amount of product formed was calculated using the equation AUC product / (AUC product + AUC Substrate). Negative controls were pre-quenched with 0.5% formic acid (final). Lysozyme assay was performed using the manufacturer’s instructions (Biovision Lysozyme inhibitor screening kit K237). Flavonoids were acquired from Sigma-Aldrich and Seleckchem.
IC50 values of enzyme inhibition. Inhibition of the enzymes was measured at 10 concentration values in the range of 5 nM to 100 μM for each compound and enzyme, with two technical replicates; the percent inhibition values were determined by SAMDI software. Sigmoidal curves were fitted to the percent inhibition vs log10 (concentration) series, and IC50 values were determined at the crossing point of 50 % inhibition. Manual verification of the fits and the IC50 values was performed. The resulting IC50 values fell into the following categories: (a) within the assayed range of 5nM to 100μM (26 % of fits), (b) IC50 could be extrapolated, IC50 > 100μM (12 % of fits), or (c) fitting was not possible because all values were at baseline (62 % of fits). Compound efficacy ranking. First, for each IC50 value per compound and enzyme, a Z-score was calculated based on the log10 (IC50) value and that of the compounds that produced a successful readout for enzyme i , according to Equation 1: […]

In the case of `O=c1c(O[C@@H]2O[C@H](CO)[C@@H](O)[C@H](O)[C@H]2O)c(-c2ccc(O)c(O)c2)oc2cc(O)cc(O)c12` [isoquercitrin], the “inhibition of enzyme activity, NSD2” value was “blocked”. As to `O=c1c(O)c(-c2ccc(O)c(O)c2)oc2cc(O)cc(O)c12` [quercetin], the “inhibition of enzyme activity, NSD2” value is given as “blocked”. In addition, the “inhibition of enzyme activity, NSD2” value (listed as Quercetin) was “inhibited”. Under “listed as Quercitin”, the “inhibition of enzyme activity, NSD2” value was “concentration-dependent inhibition”. For `C[C@@H]1O[C@@H](Oc2c(-c3ccc(O)c(O)c3)oc3cc(O)cc(O)c3c2=O)[C@H](O)[C@H](O)[C@H]1O` [quercitrin], the “inhibition of enzyme activity, NSD2” value is recorded as “blocked”.
